In patent US9023853B2, “Janus kinase 2 (JAK2) inhibitor for the treatment of lupus” (Cephalon, Inc., priority 2010, dated 2015):
Where “and” joins values, the source holds several entries; their conditions need not be identical. Equal entries are not always repeated. Entries after “also recorded” stand apart in the source; their conditions may differ.

Tests used:
Format in all cases: in vivo, mouse
[1] = test system: anti-dsDNA antibodies; assay: Serum anti-dsDNA ANA ELISA in NZM mice; conditions: for A: Anti-dsDNA IgG, MEAN: NZM group mean; for A: Anti-dsDNA IgG: NZM individual mouse; for serum anti-dsDNA ANAs decrease compared to vehicle: NZM mice, over course of disease
Description: The measurement of anti-dsDNA and anti-Smith antigen antibodies was done by an in-house generated custom ELISA assay. Chromatin coated plates were purchased from Inova Diagnostics, Inc. Purified bovine thymus dsDNA (Sigma, St. Louis, […].) or purified bovine Smith antigen (GenWay, San Diego, Calif.) were used as coating antigen for the detection of anti-dsDNA and anti-Smith Ag antibodies respectively. Coated plates were washed with Borate Sulfate Saline (BSS) and blocked with BSS containing 1% Bovine Serum Albumin (BSA) and 0.1% Tween-20 detergent. Standard curves were generated using mouse anti-chromatin antibody (Sigma, 2B1) or 25 week old MRL/lpr serum. Mouse anti-dsDNA antibody (Abcam, Cambridge, Mass.), or mouse anti-Smith antigen antibody (Abcam) were used as standards for each assay. Secondary antibody was purchased from Abcam (goat anti-mouse pAb-HRP), the substrate was purchased from Rockland (Gilbertsville, Pa.) (TMB), and stop reaction buffer was generated using 1 mL of concentrated sulfuric acid into 20 mL of dH2O. Developed plates were read using a Victor-X4 spectrophotometer reading at […] with a reference wavelength of 570 nm. For all ANA ELISA assays, values below the limit of detection set by the lowest point along the standard or set by the manufacturer were considered out of range and were not estimated, but assumed the lowest point along the standard curve for that particular assay.
(§1) Age mated, female, NZM or NZW/LacJ, mice were matured for the study of lupus nephritis for a total of 7 months or 210 days at which time urine was collected for proteinuria detection. Mice with 0.5-1.0 mg/ml of urine protein as determined by an optical density-based total protein precipitation assay and cross-checked for 30-300 mg/dl of protein as determined by a stick assay were considered proteinuria positive and selected for study entry. Groups were normalized to contain a Gaussian distribution of proteinuria positive animals (i.e., ⅓ low proteinuria, ⅓ medium, ⅓ high) then randomized between groups before ear marking and taking baseline measures including urine and serum collections. A total of five mice from the total population were randomly selected for baseline kidney histology evaluation. Treatments and tests for each group are as described in FIG. 12. Briefly, with a minimum of 10 mice per group, COMPOUND A was administered at 100 mg/kg or 55 mg/kg, both twice a day and orally. […] Vehicle included 3% DMSO, 10% Solutol and 87% PBS. […] End-stage lupus nephritis was evaluated by histopathology and scored by a board certified pathologist for the assessment of total renal damage in diseased animals using the scoring method described by Smith et al (Smith, Dong et al. 2007). […] Day-98 or “end of treatment/study” represents 310 days of age for the NZM animals.

[2] = test system: NZM mice; assay: Renal histopathology kidney IC-GN scoring in NZM mice; conditions: for D: Glomerular Sclerosis / E: Interstitial Infiltration / G: Interstitial Fibrosis / B: Glomerular Cellularity / C: Glomerular Necrosis / F: Tubular Atrophy / H: Vasculitis: NZM individual mouse; for Glomerular Cellularity / Glomerular Necrosis / Glomerulosclerosis / Interstitial Fibrosis / Interstitial Infiltration / Tubular Atrophy / Vasculitis: NZM kidney score (grade 0-5), mean; for glomerular cellularity decrease compared to vehicle: p<0.001
Method: For histological analyses, the left kidney and lung (NZM model only) from each animal was removed and fixed in 10% buffered neutral 10% formalin (EMD) for 48 hours on an orbital rocker at 25° C., then washed overnight with running dH2O and stored in 70% ethanol at 4° C. until ready to be processed. Kidney stains used for histological analyses included hematoxylin and eosin (H&E), Periodic Acid Schiff (PAS) and Trichrome stains (Wistar Institute, Philadelphia, Pa.). All 3 stained sections were used by the pathologist for scoring purposes. All histological scoring was performed blinded and by an independent board certified veterinary medical pathologist (Julie Engiles, VMD, DACVP; University of Pennsylvania). Multiple stains were used to determine score values. Images in FIGS. 8, 19 and 20 show worst affected area of section selected blindly by the pathologist.
Kidney IC-GN Scoring Method (Smith, Dong et al. 2007):
1. […]
2. […]
3. […]
4. […]
5. […]
6. […]
7. […]
Also considered effacement of the glomerular tuft by PAS positive, Trichrome negative material necrosis. • Glomerular sclerosis was defined by increased fibroplasia or fibrosis within the glomerular tuft or capsule. […] Pharmacodynamic (PD) Analysis
as §1

[3] = test system: NZM mice; assay: Urinalysis total urine protein (proteinuria) in NZM mice; conditions: for I: Proteinuria, MEAN: NZM group mean; for I: Proteinuria: NZM individual mouse; for total urine protein decrease compared to vehicle: over course of disease
Method: Urine samples were acid precipitated for total protein recovery and analysis. Samples for which enough urine remained were used for Uristix® leukouria analysis (MRL/lpr study only). Briefly, a standard protein solution was prepared from normal mouse sera and was used as a standard for mouse urinary protein assay by turbidity. Standard preparation was as follows: 0, 5, 10, 15, 20, 30, 40, and 50 μL of a 4 mg/mL mouse sera standard protein solution as provided in the kit were added in duplicate into two columns. PBS was added to individual wells to adjust the final volume to 50 μL. For urine sample preparation, urine samples were centrifuged at 9880×g for 3 minutes using a tabletop micro-centrifuge. Urine supernatant (1-50 μL) was added in duplicate. PBS was added to adjust the volume to 50 μL total. For the turbidity assay: 25 μL of 0.1 N HCl was added into blank columns and 250 μL of 3% sulfosalicyclic acid into the test columns. The microplate was incubated for 10 minutes at RT and plates were read using an ELISA reader with single beam at 450 nm. For the Uristix® strip assay, strips were laid out and labeled. Twenty microliters of urine were placed onto each test strip square and incubated for at least 30 seconds before the result was recorded. For all total urine analysis plate-based assays, values below the limit of detection set by the lowest point along the standard or set by the manufacturer were considered out of range and were not estimated, but assumed the lowest point along the standard curve for that particular assay.
as §1

[4] = NZM mice, sentence names 55 mg/kg and 100 mg/kg doses, p<0.05

CN1CCN(c2cccc(Nc3nc4c(-c5ccc(S(C)(=O)=O)cc5)cccn4n3)c2)CC1 [COMPOUND A, [8-(4-methanesulfonyl-phenyl)-[1,2,4]triazolo[1,5-a]pyridin-2-yl]-[3-(4-methyl-piperazin-1-yl)-phenyl]-amine]
A: Anti-dsDNA IgG, MEAN ([1]; CMPD A 55 mpk bid): 16.4
A: Anti-dsDNA IgG, MEAN ([1]; CMPD A 100 mpk bid): 14.4
A: Anti-dsDNA IgG ([1]; CMPD A 55 mpk bid, 55 mg/kg): 20.6 and 39.4 and 9.4 and 12.6 and 12.7 and 7.5 and 15.2 and 16.7 and 19.3 and 10.8
A: Anti-dsDNA IgG ([1]; CMPD A 100 mpk bid, 100 mg/kg): 13.4 and 18.2 and 9.6 and 13.8 and 11.5 and 6.6 and 20.5 and 5.1 and 26.5 and 19.2
serum anti-dsDNA ANAs decrease compared to vehicle ([1]; COMPOUND A 55 mg/kg): 67.0%
serum anti-dsDNA ANAs decrease compared to vehicle ([1]; COMPOUND A 100 mg/kg): 73.9%
D: Glomerular Sclerosis ([2]; CMPD A 55 mpk bid): − (‘−’ no disease (1))
E: Interstitial Infiltration ([2]; CMPD A 55 mpk bid): − (‘−’ no disease (1))
G: Interstitial Fibrosis ([2]; CMPD A 55 mpk bid): − (‘−’ no disease (1))
B: Glomerular Cellularity ([2]; CMPD A 55 mpk bid, 55 mg/kg): + (‘+’ mild (2)); also recorded: − (‘−’ no disease (1))
C: Glomerular Necrosis ([2]; CMPD A 55 mpk bid, 55 mg/kg): − (‘−’ no disease (1)); also recorded: + (‘+’ mild (2))
F: Tubular Atrophy ([2]; CMPD A 55 mpk bid, 55 mg/kg): + (‘+’ mild (2)); also recorded: − (‘−’ no disease (1))
H: Vasculitis ([2]; CMPD A 55 mpk bid, 55 mg/kg): − (‘−’ no disease (1)); also recorded: + (‘+’ mild (2))
B: Glomerular Cellularity ([2]; CMPD A 100 mpk bid, 100 mg/kg): − (‘−’ no disease (1)); also recorded: + (‘+’ mild (2))
C: Glomerular Necrosis ([2]; CMPD A 100 mpk bid, 100 mg/kg): − (‘−’ no disease (1)); also recorded: + (‘+’ mild (2)); also recorded: ++ (‘++’ moderate (3))
D: Glomerular Sclerosis ([2]; CMPD A 100 mpk bid, 100 mg/kg): − (‘−’ no disease (1)); also recorded: ++ (‘++’ moderate (3))
E: Interstitial Infiltration ([2]; CMPD A 100 mpk bid, 100 mg/kg): − (‘−’ no disease (1)); also recorded: + (‘+’ mild (2))
F: Tubular Atrophy ([2]; CMPD A 100 mpk bid, 100 mg/kg): − (‘−’ no disease (1)); also recorded: + (‘+’ mild (2))
G: Interstitial Fibrosis ([2]; CMPD A 100 mpk bid, 100 mg/kg): − (‘−’ no disease (1)); also recorded: + (‘+’ mild (2))
H: Vasculitis ([2]; CMPD A 100 mpk bid, 100 mg/kg): − (‘−’ no disease (1)); also recorded: + (‘+’ mild (2))
Glomerular Cellularity ([2]; COMPOUND A 55 mg/kg): 1.33
Glomerular Necrosis ([2]; COMPOUND A 55 mg/kg): 1.22
Glomerulosclerosis ([2]; COMPOUND A 55 mg/kg): 1.00
Interstitial Fibrosis ([2]; COMPOUND A 55 mg/kg): 1.0
Interstitial Infiltration ([2]; COMPOUND A 55 mg/kg): 1.11
Tubular Atrophy ([2]; COMPOUND A 55 mg/kg): 1.22
Vasculitis ([2]; COMPOUND A 55 mg/kg): 1.11
Glomerular Cellularity ([2]; COMPOUND A 100 mg/kg): 1.44
Glomerular Necrosis ([2]; COMPOUND A 100 mg/kg): 1.44
Glomerulosclerosis ([2]; COMPOUND A 100 mg/kg): 1.22
Interstitial Fibrosis ([2]; COMPOUND A 100 mg/kg): 1.22
Interstitial Infiltration ([2]; COMPOUND A 100 mg/kg): 1.22
Tubular Atrophy ([2]; COMPOUND A 100 mg/kg): 1.33
Vasculitis ([2]; COMPOUND A 100 mg/kg): 1.44
enlarged glomeruli and leukocytic infiltrates in renal sections ([2]; NZM mice treated with COMPOUND A, FIG. 19): absent
glomerular cellularity decrease compared to vehicle ([2]; NZM mice, COMPOUND A 55 mg/kg): 59.3%
glomerular cellularity decrease compared to vehicle ([2]; NZM mice, COMPOUND A 100 mg/kg): 56.2%
renal pathologies ([2]; NZM mice, comparable to non-diseased NZW/LacJ age-matched control, FIG. 19): decreased renal pathologies
interstitial fibrosis decrease compared to vehicle [2, 4]: 58.3%
vasculitis decrease compared to vehicle [2, 4]: 8.3%
I: Proteinuria, MEAN ([3]; CMPD A 55 mpk bid): 0.56 mg/mL
I: Proteinuria, MEAN ([3]; CMPD A 100 mpk bid): 1.32 mg/mL
I: Proteinuria ([3]; CMPD A 55 mpk bid, 55 mg/kg): 0.41 mg/mL (2×) and 0.50 mg/mL and 0.74 mg/mL and 0.48 mg/mL (2×) and 0.52 mg/mL and 1.11 mg/mL and 0.37 mg/mL and 0.61 mg/mL
I: Proteinuria ([3]; CMPD A 100 mpk bid, “0.00” = BQL, 100 mg/kg): 0.48 mg/mL and 0.55 mg/mL and 0.70 mg/mL and 0.53 mg/mL and 0.44 mg/mL and 0.11 mg/mL and 0.00 mg/mL (3×) and 10.39 mg/mL
total urine protein decrease compared to vehicle ([3]; NZM mice, COMPOUND A 55 mg/kg): 76.25
total urine protein decrease compared to vehicle ([3]; NZM mice, COMPOUND A 100 mg/kg): 81.8%
urine protein levels relative to age-matched, non-lupus control mice ([3]; NZM mice, COMPOUND A treatment, FIG. 17): below the protein levels of age-matched, non-lupus control mice

C[C@@H]1C[C@H]2[C@@H]3CCC4=CC(=O)C=C[C@]4(C)[C@@]3(F)[C@@H](O)C[C@]2(C)[C@@]1(O)C(=O)CO [Dex, dexamethasone, reference compound]
A: Anti-dsDNA IgG, MEAN ([1]; Dex 1.5 mpk 3 × wk): 42.7
A: Anti-dsDNA IgG ([1]; Dex 1.5 mpk 3 × wk): 27.2 and 18.9 and 20.0 and 79.5 and 167.5 and 27.8 and 16.2 and 10.9 and 17.1
B: Glomerular Cellularity ([2]; Dex 1.5 mpk 3 × wk): ++ (‘++’ moderate (3)); also recorded: + (‘+’ mild (2)); also recorded: +++ (‘+++’ high (4))
C: Glomerular Necrosis ([2]; Dex 1.5 mpk 3 × wk): ++ (‘++’ moderate (3)); also recorded: + (‘+’ mild (2)); also recorded: +++ (‘+++’ high (4))
D: Glomerular Sclerosis ([2]; Dex 1.5 mpk 3 × wk): +++ (‘+++’ high (4)); also recorded: − (‘−’ no disease (1)); also recorded: ++ (‘++’ moderate (3)); also recorded: ++++ (‘++++’ severe disease (5))
E: Interstitial Infiltration ([2]; Dex 1.5 mpk 3 × wk): ++ (‘++’ moderate (3)); also recorded: − (‘−’ no disease (1)); also recorded: +++ (‘+++’ high (4))
F: Tubular Atrophy ([2]; Dex 1.5 mpk 3 × wk): +++ (‘+++’ high (4)); also recorded: − (‘−’ no disease (1))
G: Interstitial Fibrosis ([2]; Dex 1.5 mpk 3 × wk): +++ (‘+++’ high (4)); also recorded: ++ (‘++’ moderate (3)); also recorded: − (‘−’ no disease (1))
H: Vasculitis ([2]; Dex 1.5 mpk 3 × wk): + (‘+’ mild (2)); also recorded: − (‘−’ no disease (1)); also recorded: +++ (‘+++’ high (4))
Glomerular Cellularity ([2]; Dex 1.5 mg/kg): 3.0
Glomerular Necrosis ([2]; Dex 1.5 mg/kg): 3.0
Glomerulosclerosis ([2]; Dex 1.5 mg/kg): 3.42
Interstitial Fibrosis ([2]; Dex 1.5 mg/kg): 2.71
Interstitial Infiltration ([2]; Dex 1.5 mg/kg): 2.71
Tubular Atrophy ([2]; Dex 1.5 mg/kg): 3.14
Vasculitis ([2]; Dex 1.5 mg/kg): 2.42
I: Proteinuria, MEAN ([3]; Dex 1.5 mpk 3 × wk): 7.86 mg/mL
I: Proteinuria ([3]; Dex 1.5 mpk 3 × wk): 8.43 mg/mL and 10.19 mg/mL (2×) and 11.02 mg/mL and 8.47 mg/mL and 0.35 mg/mL and 7.16 mg/mL and 0.55 mg/mL and 12.36 mg/mL and 9.89 mg/mL
